Where two headings read alike, the source gives them in different places.
What was measured:
[1] = tested on: Ehrlich ascitic tumor; test: Antitumor activity, life prolongation of mice with Ehrlich ascitic tumor; format: in vivo
Procedure: The experiment was conducted as follows. 10^6 cells of Erlich tumuor were injected in common white mice intraperitoneally, the dose being given per each animal. […] Each dose of the preparation was tested in six mice. The control group included 18 mice. Giniquine solution was prepared by dissolving the substance ex tempore in distilled water or in a buffer. The effect of the preparation is shown on charts 1,2,3.

[2] = tested on: sarcoma AK; test: Antitumor activity, sarcoma AK; format: in vivo, mice
Procedure: (§1) Apart from the tests on Ehrlich ascitic tumor, giniquine was studied on twelve more inoculated tumors. Seven tumors (melanoma B16, sarcoma AK, large intestine carcinoma acatol-1, sarcoma 180, adenocarcinoma 755, Lewis lung carcinoma and sarcoma 37) were inoculated subcutaneously with 50 mg of tumoral cells per mouse. Four tumors (lymphatic leukemies L 5178, L 5178Y, L 1210 and P-388) were inoculated intraperitoneally with 10^6 cells per mouse. One tumor (La, hemocytoblastosis) was inoculated intraperitoneally by injecting 50 mg of cell suspension of spleen and liver of mice suffering La hemocytoblastosis, per mouse. Giniquine was injected intraperitoneally five times for seven days: 1,2,3,4,7 days or 3,4,5,6,7 days after the implantation of tumor. The rate of deceleration of the tumor growth was established 14 days after the ultimate injection of giniquine; life of test animals was recorded for 60 days.

[3] = tested on: La hemocytoblastosis; test: Antitumor activity, La hemocytoblastosis; format: in vivo, mice
Procedure: as §1

[4] = tested on: lymphatic leukemia L-1210; test: Antitumor activity, lymphatic leukemia L-1210; format: in vivo, mice
Procedure: as §1

[5] = LD50, intact mice; settings: mouse, in vivo, ip, intraperitoneal
[6] = LD50 / toxicity, mice with 7-days Ehrlich ascitic tumor; format: in vivo; settings: for LD50: mouse, in vivo
Text: It should be noted that with a single intraperitoneal injection of the
With peroral administration, toxicity of giniquine is 4-5 times lower.

[7] = tested on: Liver; test: In vivo biosynthesis of DNA, RNA and protein in liver; design: species or system mice; settings: for Incorporation of 2-^14 C-leucine in protein / Incorporation of 2-^14 C-thymidine in DNA: intraperitoneal 100 mg/kg; for inhibition at 100 mg/kg: Mus musculus, three hours
Procedure: (§2) The influence of giniquine on biosynthetic processes in the in vivo tests was studied on common white mice of a mass of 25-35 g with Ehrlich ascitic tumor.
(§3) The mice were divided into two groups. The animals in the first group were given a single injection of the preparation in differing doses, and the animals in the second group were treated with distilled water. Three series of experiments were conducted. In the first series of tests (16 mice) the preparation was injected in a dose of 100 mg/kg ([…] dose), and the animals were decapitated one hour after the injection; in the second test series (16 mice) the animals were slaughtered 3 hours after the injection with other conditions being the same. In the third test series (35 mice) the influence of giniquine on plastic metabolism in tumor cells and normal tissues was studied 24 hours after the injection of a 0.33% solution of the preparation in a dose of 28 mg/kg (therapeutical dose).
(§4) Labeled precursors of nucleic acids and protein were injected intraperitoneally one hour before the slaughter of the animals (50 μc/100 g). Ascitic fluid, as well as liver and spleen, mucous membrane of small intestine, brain, kidneys and lungs were taken for analysis. 10% suspension was prepared from tumor cells, and 10% homogenates were prepared from tissues in a physiological solution.
(§5) Tumor cells and tissue homogenates for precipitation of nucleic acids were treated with 57% perchloric acid (10:1). Acid-soluble fraction was removed by washing the precipitate twice with 5 ml of 5% perchloic acid with subsequent centrifuging at 2000 g. Nucleic acids were hydrolyzed by the Schneider method. Radioactivity of DNA and RNA fractions was measured by means of a liquid scintillation counter. The quantity of DNA and RNA was determined by spectrophotometry: the quantity of DNA was determined with diphenylamine, and RNA- with orcin.
(§6) To prepare protein hydrolysate, the suspension of tumoral cells and homogenates of normal tissues were treated with cool 10% trichloracetic acid (1:4), with subsequent centrifuging at 2000 g for ten minutes. The precipitate was washed twice with 5 ml of 10% trichloracetic acid. Lipoids were removed by a consecutive treatment of the precipitate with ethanol, saturated solution of sodium acetate, a mixture of ethanol and ether (3:1) and ether. To prepare protein hyhdrolysate, 4 ml of 0.3N KOH were added to the precipitate, and the mixture was placed into a thermostatic chamber at 37° C. for 60 minutes. The radioactivity was measured by means of a liquid scintillation counter. Protein was quantitatively determined by spectrophotometry using a microbiuret reaction.

[8] = tested on: Spleen; test: In vivo biosynthesis of DNA, RNA and protein in spleen; design: species or system mice; settings: for Incorporation of 2-^14 C-leucine in protein / Incorporation of 2-^14 C-thymidine in DNA: intraperitoneal 100 mg/kg
Procedure: as §2, §3, §4, §5, §6

[9] = tested on: Mucous membrane of small intestine; test: In vivo biosynthesis of DNA, RNA and protein in mucous membrane of small intestine; design: species or system mice; settings: 24 hours, intraperitoneal 28 mg/kg
Procedure: as §2, §3, §4
(§7) Tumor cells and tissue homogenates for precipitation of nucleic acids were treated with 57% perchloric acid (10:1). […] Radioactivity of DNA and RNA fractions was measured by means of a liquid scintillation counter. The quantity of DNA and RNA was determined by spectrophotometry: the quantity of DNA was determined with diphenylamine, and RNA- with orcin.
(§8) To prepare protein hydrolysate, the suspension of tumoral cells and homogenates of normal tissues were treated with cool 10% trichloracetic acid (1:4), with subsequent centrifuging at 2000 g for ten minutes. […] The radioactivity was measured by means of a liquid scintillation counter. Protein was quantitatively determined by spectrophotometry using a microbiuret reaction.

[10] = tested on: wound healing processes; test: Influence on wound healing processes
[11] = tested on: normal tissues (mucous membrane of small intestine, liver, spleen, brain, kidneys, lungs); test: In vivo biosynthesis of macromolecules in normal tissues; design: species or system mice; settings: 24 hours, 28 mg/kg
Procedure: as §2
The mice were divided into two groups. The animals in the first group were given a single injection of the preparation in differing doses, and the animals in the second group were treated with distilled water. Three series of experiments were conducted. […]
as §7, §8

[12] = LD50 / toxicity, mice with 7-days Ehrlich ascitic tumor; format: in vivo; settings: for LD50: mouse, in vivo; remark: listed apart in the source
[13] = 24 hours, intraperitoneal 28 mg/kg

CCN(CC)CCCC(C)NC(=O)c1cc(C=Cc2ccc([N+](=O)[O-])o2)nc2ccccc12 (stereo not drawn) [giniquine, 2-[2'-(5"-nitrofuryl-2")vinyl]quinoline-4-carboxylic acid (α-methyl-δ-diethylaminobutyl)amide triphosphate]
dependence of antitumoral effect on solution concentration ([1]; 0.1 to 0.35% solution): did not change within this range of concentrations
prolongation of life ([1]; Chart 1, intraperitoneal injection): 100%
prolongation of life ([1]; Chart 1, intravenous injection): 25%
antitumor effect, single versus five injections ([1]; Chart 2, single intraperitoneal injection on first day vs five injections at 1,2,3,4,7 days): the same
prolongation of life ([1]; Chart 3, intraperitoneal injection on 7th day): 100%
prolongation of life ([1]; Chart 3, intraperitoneal injection on 14th day): 55%
prolongation of life ([1]; Chart 3, intraperitoneal injection on first day after implantation): 90%
prolongation of life ([1]; Chart 3, intraperitoneal injection on third day): 80%
Deceleration of tumor growth ([2]; common female mice, intraperitoneal, days 3,4,5,6,7, optim. daily dose 2.2 mg/kg): 46%
Max. prolongation of life ([2]; common female mice, intraperitoneal, days 3,4,5,6,7, optim. daily dose 10.0 mg/kg): 15%
antitumor effect (in words) ([2]; sarcoma AK): slight antitumor effect
Max. life prolong. ([3]; C57 BL/6Y female mice, intraperitoneal, days 1,2,3,4,7, optimum daily dose 10.0 mg/kg): 5%
antitumor effect / sensitivity (in words) ([3]; La hemocytoblastosis): practically insensitive
Max. life prolong. ([4]; BDF1 male mice, intraperitoneal, days 1,2,3,4,7, optimum daily dose 6.0 mg/kg): 15%
sensitivity (in words) ([4]; L-1210): practically insensitive
LD50 ([5]; single injection, female): 33 mg/kg
LD50 ([5]; single injection, male): 30 mg/kg
LD50 ([5]; ten injections, female): 8 mg/kg
LD50 ([5]; ten injections, male): 7.3 mg/kg
dependence of mice sensitivity on sex ([6]; Table 4): does not depend on the sex of test mice
LD50 ([6]; ip, intraperitoneal, single injection, female): 99 mg/kg
LD50 ([6]; po, peroral, single administration, female): 360 mg/kg
LD50 ([6]; po, peroral, single administration, male): 500 mg/kg
toxicity, times lower ([6]; peroral administration): 4-5 times lower
toxicity, relative ([6]; single intraperitoneal injection, 7 days after implantation of Ehrlich ascitic tumor): three times lower
Incorporation of 2-^14 C-leucine in protein ([7]; 1 h): 127.0 % of control
Incorporation of 2-^14 C-thymidine in DNA ([7]; 1 h): 106.0 % of control
Incorporation of 2-^14 C-leucine in protein ([7]; 3 h): 96.0 % of control
Incorporation of 2-^14 C-thymidine in DNA ([7]; 3 h): 93.0 % of control
Incorporation of specific precursors, DNA [7, 13]: 190.0 % of control
Incorporation of specific precursors, Protein [7, 13]: 112.0 % of control
Incorporation of specific precursors, RNA [7, 13]: 124.0 % of control
inhibition at 100 mg/kg ([7]; 3 h, 100 mg/kg, read-out: inhibition of biosynthesis of DNA): 7%
inhibition at 100 mg/kg ([7]; 3 h, 100 mg/kg, read-out: inhibition of biosynthesis of protein): 4%
inhibition of biosynthesis of protein (in words) ([7]; one hour, 100 mg/kg): not observed or inappreciable
stimulation of biosynthesis of DNA ([7]; one hour, 100 mg/kg): 6%
Incorporation of 2-^14 C-leucine in protein ([8]; 1 h): 97.0 % of control
Incorporation of 2-^14 C-thymidine in DNA ([8]; 1 h): 120.0 % of control
Incorporation of 2-^14 C-leucine in protein ([8]; 3 h): 40.0 % of control
Incorporation of 2-^14 C-thymidine in DNA ([8]; 3 h): 116.0 % of control
Incorporation of specific precursors, DNA [8, 13]: 330.0 % of control
Incorporation of specific precursors, Protein [8, 13]: 93.0 % of control
Incorporation of specific precursors, RNA [8, 13]: 162.0 % of control
inhibition at 100 mg/kg ([8]; Mus musculus, 3 h, three hours, 100 mg/kg): 60%
inhibition of biosynthesis of protein (in words) ([8]; one hour, 100 mg/kg): not observed or inappreciable
stimulation of biosynthesis of DNA ([8]; one hour, 100 mg/kg): 20%
stimulation of biosynthesis of DNA ([8]; three hours, 100 mg/kg): 16%
Incorporation of specific precursors, DNA [9]: 386.0 % of control
Incorporation of specific precursors, Protein [9]: 122.0 % of control
Incorporation of specific precursors, RNA [9]: 158.0 % of control
inhibiting influence on wound healing processes [10]: absence of an inhibiting influences on wound healing processes
biosynthesis processes in normal tissues (in words) [11]: a stimulation of biosynthesis processes
toxicity compared to intraperitoneal injection ([12]; intravenous injection): five times greater
LD50 ([12]; ip, intraperitoneal, ten injections, female): 10 mg/kg
LD50 ([12]; ip, intraperitoneal, ten injections, male): 7 mg/kg
LD50 ([12]; iv, single injection, female): 17.5 mg/kg
LD50 ([12]; iv, single injection, male): 20 mg/kg
